Measurements published in patent US8815812B2, “Synthetic arginine substituted peptides and their use” (Inger Mattsby-Baltzer, priority 2007, dated 2014).
Where no end group is shown, it is not given here.

Experiments:
Test in all cases: Antimicrobial assay (MMC99) in 1% Bactopeptone
Format in all cases: cell-based
Conditions in all cases: 99% reduction of the inoculum
C. albicans = test system: C. albicans
Protocol: (§1) [NT] […] Washed cells were suspended in 1% Bactopeptone (BP) (Difco, USA). The concentration of bacterial or fungal cells was spectrophotometrically adjusted. Peptides serially diluted in BP by twofold steps were added in duplicate or triplicate to the wells of a microtiterplate (200 μl per well). The bacterial or yeast cell solutions were added in 10 μl volumes to give a final concentration of approximately 2×10^5 cells per ml. The concentration of the stock solution was always checked by viable counts. The microplate was incubated at 37° C. in a humid chamber for 2 h unless otherwise stated. Five μl were taken from each well and added as a drop onto a blood agar plate and incubated over night at 37° C. The concentration of lactoferrin or peptide causing a 99% reduction of the inoculum was defined as the MMC99.

E. coli = test system: E. coli
Protocol: as §1

S. aureus = test system: S. aureus
Protocol: as §1

In the case of “GRRRRSVQWCAVSQPEATKCFQWQRNMRKVR (cysteine pairing not given here) [HLBD31]”, the MMC99 (C. albicans; 2 h) is reported as 25 µg/mL, the MMC99 (C. albicans; 24 h) is reported as 38 µg/mL and the MMC99 (E. coli; 2 h) is reported as greater than 100 µg/mL. For the same sequence, the MMC99 (E. coli; 24 h) was 50 µg/mL, the MMC99 (S. aureus; 2 h) was 100 µg/mL and the MMC99 (S. aureus; 24 h) was 100 µg/mL.
